Data reported in patent publication US8598145B2, “Mitochondrially delivered anti-cancer compounds” (priority 2008, dated 2013).

Experiments:
[1] = tested on: Bax/Bak double knockout Jurkat cell line; test: Apoptosis assay of FIG. 3B; assay type: cell-based, human; settings: α-TOS 50 μM, MitoVES 5 μM
Method: 3B—Parental, Bax^−/− and […] Jurkat cells were exposed to α-TOS (T) at 50 μM and MitoVES (M) 5 μM, and apoptosis assessed.
Toxicity of α-TOS, VE11S (“VES”), MitoVE3S, MitoVE5S, MitoVE7S, MitoVE9S, MitoVE11S (“MitoVES”), MitoVE11AE (“MitoVEAE”), MitoVE11F (“MitoVEF”), MitoVE11M (“MitoVEM”), and VES4TPP towards cancer cells was assessed on the basis of IC50, as detailed in Turanek, J., et al. ((2008). Liposomal formulation of vitamin E analogs as an efficient and selective anti-cancer treatment. Clin. Cancer Res. (submitted)). Apoptosis was assessed using the Annexin V method (Weber, T. et al. Mitochondria play a central role in apoptosis induced by α-tocopheryl succinate, an agent with anticancer activity. Comparison with receptor-mediated pro-apoptotic signaling. Biochemistry 42, 4277-4291 (2003)) and dissipation of the mitochondrial inner transmembrane potential was estimated using the polychromatic probe JC-1 (Molecular Probes) (Weber, T. et al. Mitochondria play a central role in apoptosis induced by α-tocopheryl succinate, an agent with anticancer activity. Comparison with receptor-mediated pro-apoptotic signaling. Biochemistry 42, 4277-4291 (2003)).

EAhy926 cells = test: Angiogenesis in vitro: wound-healing and tube-forming (FIG. 7); assay type: cell-based, human
Method: Wound-healing (A-F) and tube-forming activity (G, H) were assessed using the EC EAhy926 cells. For wound-healing activity, the cells were seeded in 35-mm Petri dishes and allowed to reach 100% confluency. The ‘injury’ was then performed, resulting in a denuded gap of 0.4-0.5 mm. Wound-healing activity in control cells and cells supplemented with 1, 5 or 10 μM MitoVES was assessed on the basis of proliferation and migration of cells into the denuded zone using a light microscope equipped with a grid and a digital camera (A). […] In panel C, representative images of injured control cells and cells treated with 10 μM MitoVES at different times are presented. […] EAhy926 cells were seeded at ˜10^5 per well in Matrigel-coated 24-well plates and allowed for 24 h to form tubes at the absence or presence of MitoVES. Complete capillaries connecting points of individual polygons (see General Materials and Methods) were counted per the field of 0.16 mm^2 and took as a measure of the tube-forming activity (F). […] At 20 h of treatment, the cells were retrieved from the Matrigel and assessed for apoptosis using the Annexin V binding method (H). Parental EAhy926 cells and their ρ^0 counterparts were seeded in Petri dishes at confluency, ‘injured’ as described above, and the wound-healing activity assessed in the absence or presence of 10 μM MitoVES (MVES) (I; see symbols above panel L). The healing rate was estimated from the slopes in panel I and plotted in […] (J). At 20 h, the cells were assessed for the level of apoptosis (K). Panel L documents tube-forming activity in Matrigel of the ρ^0 EAhy 926 cells in the absence or presence of 5 μM MitoVES. […]
To assess the effect of α-TOS on the wound-healing activity of the EAhy926 cells, the cells were seeded in […] Petri dishes and allowed to reach complete confluence. […] Regrowth of cells (wound healing) in the presence of α-TOS or α-TEA was assessed by following the kinetics of narrowing the denuded gap in the microscope equipped with a grid in the eyepiece and healing expressed as the ‘rate of filling the gap’ as the rate of healing in μm/h. […]

T lymphoma cells = settings: medium pH ~6.2 compared to pH 7.2; cited from earlier work
[2] = pH 6.2 versus pH 7.4 of the medium; cited from earlier work

SMILES | apoptosis in Bax/Bak double deficient Jurkat cells [1] | fold greater potency as antiangiogenic drug than α-TOS (EAhy926 cells; relative to α-TOS) | concentration needed for comparable levels of effects on endothelial cells (EAhy926 cells; same endothelial cell types) | angiogenesis in vitro (EAhy926 cells; wound-healing, tube-forming and apoptosis assays) | greater apoptogenic efficacy at acidic pH (T lymphoma cells) | uptake of the compound at lower pH [2]
Cc1c(C)c2c(c(C)c1OC(=O)CCC(=O)[O-])CCC(C)(CCCCCCCCCCC[P+](c1ccccc1)(c1ccccc1)c1ccccc1)O2 (stereo not shown) [MitoVE11S] | extremely resistant | 5 fold | 5 to 10 µM | inhibits angiogenesis in vitro |  | 
Cc1c(C)c2c(c(C)c1OC(=O)CCC(=O)O)CC[C@@](C)(CCC[C@H](C)CCC[C@H](C)CCCC(C)C)O2 [α-TOS, α-tocopheryl succinate, reference compound] | still mediates some level of killing |  |  |  | ~3 times | about twice as much
